Laboratory results: ChEMBL document CHEMBL5029147 (J Med Chem, 2021)
The source made the active and inactive calls. The calls are words filed in the database; no cut-off is given here.

Experiments:
[1] = Drug metabolism in human MDA-MB-231 cells assessed as intracellular hydroxy-PTX metabolite formation measured after 24 hrs by LC-MS/MS-MRM analysis; type: ADME, cell-based; details: mda-mb-231, 24 h
MCF7 [2] = assay: Effect on CYP2C8 expression in human MCF7 cells at 0.5 to 1 uM incubated for 24 hrs by western blot analysis; type: functional, cell-based; details: dose 0.5-1 µM
[3] = Drug uptake in human MCF7 cells at 1 uM measured after 24 hrs in presence of 50 to 100 uM photoCORM delivered CO by LC-MS/MS-MRM analysis; type: ADME, cell-based; details: mcf7, 24 h
[4] = Drug metabolism in human MCF7 cells assessed as decline in intracellular hydroxy-PTX metabolite level at 1 uM measured after 24 hrs in presence of 50 to 100 uM photoCORM delivered CO by LC-MS/MS-MRM analysis; type: ADME, cell-based; details: mcf7, 24 h
MDA-MB-231 [5] = assay: Cytotoxicity against human MDA-MB-231 cells assessed as reduction in cell viability at < 0.5 uM incubated for 24 hrs in presence of 20 uM chloramphenicol by MTT assay; type: functional, cell-based; details: dose microM <0.5, time 24.0 hrs
[6] = Drug uptake in human MCF7 cells at 0.2 to 1 uM measured after 24 hrs by HPLC-MS/MS-MRM analysis; type: ADME, cell-based; details: mcf7, 24 h, dose 0.2-1 µM
[7] = Drug metabolism in human MCF7 cells assessed as intracellular hydroxy-PTX metabolite formation at 0.2 to 1 uM measured after 24 hrs by HPLC-MS/MS-MRM analysis; type: ADME, cell-based; details: mcf7, 24 h, dose 0.2-1 µM
[8] = Drug uptake in human MCF7 cells at 1 uM measured after 24 hrs in presence of 100 uM photoCORM delivered CO by LC-MS/MS-MRM analysis; type: ADME, cell-based; details: mcf7, 24 h
MCF7 [9] = assay: Effect on BCRP expression in human MCF7 cells at 0.5 to 1 uM incubated for 24 hrs by western blot analysis; type: functional, cell-based; details: dose 0.5-1 µM
[10] = Drug uptake in human HepG2 cells at 1 to 2 uM measured after 24 hrs in presence of photoCORM delivered CO by LC-MS/MS-MRM analysis; type: ADME, cell-based; details: hepg2, 24 h, dose 1-2 µM
[11] = Drug uptake in human MCF7 cells at 1 uM measured after 24 hrs in presence of 20 uM chloramphenicol by LC-MS/MS-MRM analysis; type: ADME, cell-based; details: mcf7, 24 h
HepG2 = assay: Cytotoxicity against human HepG2 cells assessed as reduction in cell viability incubated for 24 hrs in presence of chloramphenicol by MTT assay; type: functional, cell-based
[12] = Drug metabolism in human MCF7 cells assessed as intracellular hydroxy-PTX metabolite formation at 1 uM measured after 24 hrs by LC-MS/MS-MRM analysis; type: ADME, cell-based; details: mcf7, 24 h
MDA-MB-231 [13] = assay: Cytotoxicity against human MDA-MB-231 cells assessed as reduction in cell viability incubated for 24 hrs in presence of chloramphenicol by MTT assay; type: functional, cell-based

- Drug metabolism [1]: Metabolite_Notdetected
- Drug uptake [3]: Not Active
- Drug metabolism [4]: Metabolite_Notdetected
- Drug uptake [6]: Active
- Drug metabolism [7]: Metabolite_Detected
- Drug uptake [8]: Not Active
- Drug uptake [10]: Active
- Drug uptake [11]: Not Active
- Drug metabolism [12]: 1 fmol/µg
SMILES: CC(=O)O[C@H]1C(=O)[C@@]2(C)[C@H]([C@H](OC(=O)c3ccccc3)[C@]3(O)C[C@H](OC(=O)[C@H](O)[C@@H](NC(=O)c4ccccc4)c4ccccc4)C(C)=C1C3(C)C)[C@]1(OC(C)=O)CO[C@@H]1C[C@@H]2O [PACLITAXEL]
- Activity (MCF7 [2]): inactive
- Activity (MDA-MB-231 [5]): Active
- Activity (MCF7 [9]): inactive
- Activity (HepG2): Active
- Activity (MDA-MB-231 [13]): Active
